# Laboratory results taken from ChEMBL document CHEMBL1201862, “PubChem BioAssay data set” (2004).
#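 Briefly, cells in 96-well plates were exposed to five compound concentrations for 48 h, and endpoints were estimated by linear interpolation. Abbreviation: GI50, concentration required for 50% inhibition of growth.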 Calls of active or inactive are those of the source. No stated cut-off is given here; in the data, active = GI50 up to about 1.1 µM and inactive = higher.
# How the values were obtained:
# Assay in all cases: growth of human tumour cells (NCI), 48 h
# ACHN = tested on: ACHN
# BT-549 = tested on: BT-549
# CAKI-1 = tested on: CAKI-1
# HCT-116 = tested on: HCT-116
# Hs-578T = tested on: Hs-578T
# IGROV-1 = tested on: IGROV-1
# K562 = tested on: K562
# KM12 = tested on: KM12
# MDA-MB-435 = tested on: MDA-MB-435
# MOLT-4 = tested on: MOLT-4
# Malme-3M = tested on: Malme-3M
# OVCAR-3 = tested on: OVCAR-3
# OVCAR-4 = tested on: OVCAR-4
# RXF 393 = tested on: RXF 393
# SF-539 = tested on: SF-539
# SW-620 = tested on: SW-620
# TK-10 = tested on: TK-10
# UO-31 = tested on: UO-31
# T47D = tested on: T47D
Compound,GI50 (ACHN),GI50 (BT-549),GI50 (CAKI-1),GI50 (HCT-116),GI50 (Hs-578T),GI50 (IGROV-1),GI50 (K562),GI50 (KM12),GI50 (MDA-MB-435),GI50 (MOLT-4),GI50 (Malme-3M),GI50 (OVCAR-3),GI50 (OVCAR-4),GI50 (RXF 393),GI50 (SF-539),GI50 (SW-620),GI50 (TK-10),GI50 (UO-31),GI50 (T47D)
Nc1nc(=O)c(/N=N/c2ccccc2)c(C(=O)O)[nH]1,> 100 µM (inactive),> 100 µM (inactive),> 100 µM (inactive),61.8 µM (inactive),> 100 µM (inactive),85.7 µM (inactive),54.6 µM (inactive),> 100 µM (inactive),> 100 µM (inactive),46.3 µM (inactive),85.3 µM (inactive),98.4 µM (inactive),> 100 µM (inactive),> 100 µM (inactive),> 100 µM (inactive),> 100 µM (inactive),> 100 µM (inactive),> 100 µM (inactive),
[N-]=[N+]=NC1C(O)C(CO)OC1n1ccc(N)nc1=O (stereo not drawn),33.9 µM (inactive),161 µM (inactive),185 µM (inactive),> 172 µM (inactive),532 µM (inactive),310 µM (inactive),294 µM (inactive),187 µM (inactive),44.3 µM (inactive),2.3 µM (inactive),93.8 µM (inactive),68.2 µM (inactive),> 625 µM (inactive),> 206 µM (inactive),165 µM (inactive),159 µM (inactive),175 µM (inactive),228 µM (inactive),
CN1CC(C(=O)C2C(=O)c3ccccc3C2=O)C(=O)C(=O)C(C(=O)C2C(=O)c3ccccc3C2=O)C1 (stereo not drawn),> 100 µM (inactive),,> 100 µM (inactive),> 100 µM (inactive),,> 100 µM (inactive),> 100 µM (inactive),> 100 µM (inactive),,> 100 µM (inactive),> 100 µM (inactive),> 10 µM (inactive),,,> 100 µM (inactive),> 100 µM (inactive),> 100 µM (inactive),> 100 µM (inactive),
Cc1ccc(C(=O)C#Cc2cnc(O)nc2O)cc1,15.6 µM (inactive),,16.9 µM (inactive),5.94 µM (inactive),,16.7 µM (inactive),6.07 µM (inactive),14.7 µM (inactive),,3.41 µM (inactive),5.56 µM (inactive),13.5 µM (inactive),21.8 µM (inactive),2.99 µM (inactive),4.09 µM (inactive),8.69 µM (inactive),18 µM (inactive),17.4 µM (inactive),
COc1ccc2c(c1)CCc1c-2n(CCN2CCCCC2)c2ccc(OC)cc12,> 100 µM (inactive),> 100 µM (inactive),> 100 µM (inactive),> 100 µM (inactive),> 100 µM (inactive),> 100 µM (inactive),78.7 µM (inactive),,> 100 µM (inactive),> 10 µM (inactive),> 100 µM (inactive),> 100 µM (inactive),> 100 µM (inactive),,,> 100 µM (inactive),> 100 µM (inactive),> 100 µM (inactive),> 100 µM (inactive)
N#Cc1c(C#N)c(-c2ccco2)n(-c2ccccc2)c1N,> 100 µM (inactive),40.1 µM (inactive),> 100 µM (inactive),> 100 µM (inactive),,> 100 µM (inactive),> 100 µM (inactive),> 100 µM (inactive),> 100 µM (inactive),> 100 µM (inactive),> 100 µM (inactive),> 100 µM (inactive),> 100 µM (inactive),> 100 µM (inactive),38.5 µM (inactive),> 100 µM (inactive),> 100 µM (inactive),> 100 µM (inactive),11.7 µM (inactive)
OC(CC(O)(C(F)(F)F)C(F)(F)F)C(O)c1ccco1 (stereo not drawn),> 10 µM (inactive),,> 10 µM (inactive),> 10 µM (inactive),> 10 µM (inactive),> 10 µM (inactive),> 10 µM (inactive),> 10 µM (inactive),> 10 µM (inactive),> 10 µM (inactive),> 10 µM (inactive),> 10 µM (inactive),> 10 µM (inactive),> 10 µM (inactive),> 10 µM (inactive),> 10 µM (inactive),> 10 µM (inactive),> 10 µM (inactive),> 10 µM (inactive)
COC(=O)C1(C(=O)OC)Cc2ccc(C)cc2C2=C1C(=O)c1ccccc1C2=O,16.5 µM (inactive),,,18.2 µM (inactive),24.6 µM (inactive),19.4 µM (inactive),18.2 µM (inactive),16.6 µM (inactive),15.6 µM (inactive),8.51 µM (inactive),32 µM (inactive),3.24 µM (inactive),11.5 µM (inactive),,23.9 µM (inactive),19.8 µM (inactive),57 µM (inactive),,7.71 µM (inactive)
CN(C)Cc1cc(C(=O)/C=C/c2ccc([N+](=O)[O-])cc2)cc(CN(C)C)c1O,3.33 µM (inactive),13.6 µM (inactive),,2.86 µM (inactive),18.8 µM (inactive),12.2 µM (inactive),4.13 µM (inactive),11.9 µM (inactive),7.1 µM (inactive),18.9 µM (inactive),,2.27 µM (inactive),,14.2 µM (inactive),18.5 µM (inactive),10.3 µM (inactive),16 µM (inactive),16.1 µM (inactive),13.4 µM (inactive)
Cc1nc2ccccc2c(=O)n1NC(=O)Cc1ccccc1,> 100 µM (inactive),> 100 µM (inactive),,> 100 µM (inactive),> 100 µM (inactive),> 100 µM (inactive),> 100 µM (inactive),> 100 µM (inactive),> 100 µM (inactive),> 100 µM (inactive),> 100 µM (inactive),> 100 µM (inactive),> 100 µM (inactive),> 100 µM (inactive),> 100 µM (inactive),> 100 µM (inactive),> 100 µM (inactive),> 100 µM (inactive),> 100 µM (inactive)
CC(C)(C)C1=C(Br)C(O)(C(C)(C)C)OP1(=O)c1ccccc1 (stereo not drawn),> 100 µM (inactive),,> 100 µM (inactive),,> 100 µM (inactive),> 100 µM (inactive),> 100 µM (inactive),> 100 µM (inactive),> 100 µM (inactive),> 100 µM (inactive),> 100 µM (inactive),> 100 µM (inactive),> 100 µM (inactive),> 100 µM (inactive),> 100 µM (inactive),> 100 µM (inactive),> 100 µM (inactive),,> 100 µM (inactive)
O=C1CS(=O)(=O)C(c2cccc(Oc3ccccc3)c2)N1c1cccc(Cl)c1Cl (stereo not drawn),20.3 µM (inactive),,31.3 µM (inactive),22.4 µM (inactive),29.8 µM (inactive),,16.6 µM (inactive),26.7 µM (inactive),19.7 µM (inactive),20.2 µM (inactive),24.3 µM (inactive),21.5 µM (inactive),20.4 µM (inactive),25.1 µM (inactive),20.8 µM (inactive),28.8 µM (inactive),25.3 µM (inactive),29.5 µM (inactive),26.2 µM (inactive)
CCOC(=O)c1cc2c(=Cc3ccc(N(C)C)cc3)c3ccccc3n2[n+]1C,5.87 µM (inactive),0.577 µM (active),1.64 µM (inactive),0.537 µM (active),,,0.787 µM (active),,,1.9 µM (inactive),,0.206 µM (active),3.1 µM (inactive),1.63 µM (inactive),0.577 µM (active),0.637 µM (active),7.67 µM (inactive),6.12 µM (inactive),3.12 µM (inactive)
C=C1CC(COc2ccc3c(C)cc(=O)oc3c2)(c2ccccc2)OC1=O (stereo not drawn),3.37 µM (inactive),1.74 µM (inactive),1.64 µM (inactive),1.27 µM (inactive),6.82 µM (inactive),1.84 µM (inactive),0.356 µM (active),5.47 µM (inactive),2.43 µM (inactive),1.68 µM (inactive),1.3 µM (inactive),2.69 µM (inactive),2.16 µM (inactive),,2.45 µM (inactive),0.646 µM (active),1.62 µM (inactive),4.88 µM (inactive),2.24 µM (inactive)
Cc1ccc2c(c1)-c1nc(N)c(C#N)c(-c3ccc(Cl)cc3)c1CCS2(=O)=O,44.6 µM (inactive),49 µM (inactive),38.5 µM (inactive),33 µM (inactive),43 µM (inactive),43.1 µM (inactive),,33.3 µM (inactive),31.3 µM (inactive),,44.6 µM (inactive),,52 µM (inactive),,,46 µM (inactive),66.4 µM (inactive),20 µM (inactive),33.2 µM (inactive)
O=C(CC(C(=O)c1cccs1)c1cccs1)c1ccccc1Cl (stereo not drawn),> 100 µM (inactive),,> 100 µM (inactive),52.1 µM (inactive),75.3 µM (inactive),> 100 µM (inactive),98.4 µM (inactive),93.1 µM (inactive),> 100 µM (inactive),46.1 µM (inactive),61.8 µM (inactive),,> 100 µM (inactive),,> 100 µM (inactive),> 100 µM (inactive),> 100 µM (inactive),29.7 µM (inactive),52 µM (inactive)
COc1cc(OC)c(/C=C\c2ccnc3ccccc23)c(OC)c1,4.41 µM (inactive),,6.93 µM (inactive),2.5 µM (inactive),2.64 µM (inactive),1.45 µM (inactive),0.433 µM (active),0.736 µM (active),0.404 µM (active),3.56 µM (inactive),1.34 µM (inactive),2.92 µM (inactive),0.349 µM (active),2.39 µM (inactive),3.73 µM (inactive),3.62 µM (inactive),4.61 µM (inactive),0.859 µM (active),3.12 µM (inactive)
